Tests used:
Assay in all cases: relative viability (nuclei count vs DMSO), 5 days (fraction); higher = more cells survive
QS11 + Pictilisib = compound: C1CC2=C(C1)C=C(C=C2)OC3=NC(=C4C(=N3)N(C=N4)CC5=CC=C(C=C5)C6=CC=CC=C6)N[C@@H](CC7=CC=CC=C7)CO [QS11] + CS(=O)(=O)N1CCN(Cc2cc3nc(-c4cccc5[nH]ncc45)nc(N4CCOCC4)c3s2)CC1 [Pictilisib] (partner 1 µM)
Outline: (§1)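 Lung cancer cell lines were seeded in 1536-well plates and dosed by pin tool the next day, with either a single drug or a fixed anchor-drug dose combined with five library-drug doses (not always all listed) spaced in √10 steps. Five days later, one step fixed the cells and stained their nuclei (final 0.05% Triton X-100, 1% formaldehyde, 1 ug/ml Hoechst), and nuclei were counted on 4× images. Relative viability is the nuclei count in treated wells divided by the count in vehicle wells, and each value is the median of duplicate plates.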

AZ628 + Alpelisib = compound: CC1=C(C=C(C=C1)NC(=O)C2=CC(=CC=C2)C(C)(C)C#N)NC3=CC4=C(C=C3)N=CN(C4=O)C [AZ628] + Cc1nc(NC(=O)N2CCC[C@H]2C(N)=O)sc1-c1ccnc(C(C)(C)C(F)(F)F)c1 [Alpelisib] (partner 2 µM)
Outline: as §1

QS11 + Trametinib = compound: C1CC2=C(C1)C=C(C=C2)OC3=NC(=C4C(=N3)N(C=N4)CC5=CC=C(C=C5)C6=CC=CC=C6)N[C@@H](CC7=CC=CC=C7)CO [QS11] + CC(=O)Nc1cccc(-n2c(=O)n(C3CC3)c(=O)c3c(Nc4ccc(I)cc4F)n(C)c(=O)c(C)c32)c1 [Trametinib] (partner 0.02 µM)
Outline: as §1

[1] = compound: C[As](C)SC[C@H](NC(=O)CC[C@H](N)C(=O)O)C(=O)NCC(=O)O [Darinaparsin] + N=C(N)NC(=N)NCCc1ccccc1 [Phenformin] (partner 250 µM)
Outline: as §1

Row | Cell Line | relative viability (QS11 + Pictilisib; first compound 0.08 µM) | relative viability (QS11 + Pictilisib; first compound 0.253 µM) | relative viability (QS11 + Pictilisib; first compound 0.8 µM) | relative viability (QS11 + Pictilisib; first compound 2.53 µM) | relative viability (QS11 + Pictilisib; first compound 8 µM) | relative viability (AZ628 + Alpelisib; first compound 0.08 µM) | relative viability (AZ628 + Alpelisib; first compound 0.253 µM) | relative viability (AZ628 + Alpelisib; first compound 0.8 µM) | relative viability (AZ628 + Alpelisib; first compound 2.53 µM) | relative viability (AZ628 + Alpelisib; first compound 8 µM) | relative viability (QS11 + Trametinib; first compound 0.08 µM) | relative viability (QS11 + Trametinib; first compound 0.253 µM) | relative viability (QS11 + Trametinib; first compound 0.8 µM) | relative viability (QS11 + Trametinib; first compound 2.53 µM) | relative viability (QS11 + Trametinib; first compound 8 µM) | relative viability ([1]; first compound 0.08 µM) | relative viability ([1]; first compound 0.8 µM) | relative viability ([1]; first compound 2.53 µM) | relative viability ([1]; first compound 8 µM)
1 | NCI-H2009 | 0.726 | 0.776 | 0.747 | 0.711 | 0.626 | 1.01 | 0.895 | 0.692 | 1.03 | 0.34 | 0.242 | 0.32 | 0.24 | 0.279 | 0.256 | 0.511 | 0.52 | 0.475 | 0.55
2 | SK-LU-1 | 0.455 | 0.679 | 0.534 | 0.552 | 0.531 | 0.733 | 1.12 | 0.802 | 0.934 | 0.512 | 0.443 | 0.508 | 0.441 | 0.522 | 0.55 | 0.777 | 0.417 | 0.384 | 0.743
3 | RERF-LC-KJ | 0.628 | 0.563 | 0.506 | 0.517 | 0.497 | 0.721 | 0.912 | 0.749 | 0.719 | 0.597 | 0.825 | 0.902 | 0.843 | 0.865 | 0.76 | 0.495 | 0.447 | 0.369 | 0.434
4 | NCI-H322M | 0.55 | 0.483 | 0.492 | 0.545 | 0.49 | 0.925 | 0.719 | 0.824 | 0.747 | 0.655 | 0.547 | 0.543 | 0.565 | 0.582 | 0.513 | 0.886 | 0.795 | 0.663 | 0.795
5 | LK-2 | 0.605 | 0.698 | 0.537 | 0.547 | 0.602 | 1.23 | 1.27 | 0.834 | 1.08 | 0.296 | 0.702 | 1.03 | 0.778 | 0.81 | 0.841 | 0.399 |  | 0.346 | 0.429
6 | SK-MES-1 | 0.379 | 0.315 | 0.381 | 0.306 | 0.311 | 0.821 | 0.956 | 0.823 | 0.779 | 0.674 | 0.519 | 0.557 | 0.451 | 0.507 | 0.527 | 0.783 | 0.592 | 0.594 | 0.667
7 | NCI-H1299 | 0.725 | 0.791 | 0.648 | 0.736 | 0.567 | 1.01 | 1.22 | 1.22 | 1.24 | 0.763 |  |  |  |  |  |  |  |  | 
8 | NCI-H2228 | 0.254 | 0.507 | 0.513 | 0.427 | 0.319 | 0.697 | 0.984 | 0.656 | 0.888 | 0.351 | 0.483 | 0.392 | 0.507 | 0.788 | 0.547 | 0.254 | 0.281 | 0.328 | 0.387
9 | NCI-H1792 |  | 0.238 | 0.289 | 0.235 | 0.307 | 0.788 | 0.679 | 0.522 | 0.607 | 0.425 |  | 0.514 | 0.39 | 0.312 | 0.306 | 0.334 | 0.258 |  | 0.205
10 | LOU-NH91 | 0.541 | 0.484 |  | 0.494 | 0.54 | 0.714 | 0.747 | 0.691 | 0.687 | 0.577 | 0.797 | 0.742 | 0.743 | 0.819 | 0.767 | 0.731 | 0.683 | 0.692 | 0.705
11 | IA-LM | 0.387 | 0.343 |  | 0.257 | 0.354 | 0.805 | 0.731 | 0.552 | 0.586 | 0.207 |  |  |  |  |  |  |  |  | 
12 | SW 900 |  |  |  |  |  |  |  |  |  |  | 0.797 | 0.724 | 0.724 | 0.721 | 0.453 | 0.836 | 0.475 | 0.701 | 0.643
13 | LU99A | 0.343 | 0.317 | 0.357 | 0.296 | 0.307 | 0.456 | 0.478 | 0.628 | 0.554 | 0.216 | 0.532 | 0.626 | 0.517 | 0.5 | 0.533 | 0.927 | 0.856 | 0.897 | 0.78
14 | NCI-H661 | 0.424 | 0.397 | 0.407 | 0.376 | 0.383 | 0.647 | 0.401 | 0.497 | 0.598 | 0.363 | 0.624 | 0.594 | 0.473 | 0.46 | 0.477 | 0.261 | 0.25 | 0.299 | 0.275
15 | EBC-1 | 0.331 | 0.266 | 0.404 | 0.454 | 0.478 | 0.865 | 0.859 | 0.949 | 0.811 | 0.298 |  |  |  |  |  |  |  |  | 
16 | NCI-H3122 | 0.566 | 0.693 | 0.467 | 0.71 | 0.722 | 0.631 | 0.337 | 0.342 | 0.268 | 0.233 | 0.213 | 0.239 |  | 0.253 | 0.343 | 0.435 | 0.328 | 0.378 | 0.411
17 | LC-2-ad | 0.506 | 0.478 | 0.441 | 0.534 | 0.547 | 0.968 | 0.865 | 0.982 | 0.851 | 0.466 | 0.906 | 0.985 | 0.606 | 0.843 | 0.962 | 0.614 | 0.5 | 0.564 | 0.484
18 | HCC-78 | 0.206 | 0.185 | 0.206 | 0.222 | 0.29 | 0.5 | 0.336 | 0.346 | 0.368 | 0.504 | 0.771 | 0.765 | 0.643 | 0.883 | 0.781 | 0.728 | 0.772 | 0.819 | 0.745
19 | SW 1573 | 0.53 | 0.481 | 0.425 | 0.311 | 0.298 | 0.787 | 0.742 | 0.693 | 0.567 | 0.538 | 0.542 | 0.553 | 0.519 | 0.41 | 0.365 | 0.438 | 0.359 | 0.378 | 0.37
